Data published in patent publication US11814367B2, “Inhibitors of glycogen synthase 1 (GYS1) and methods of use thereof” (Maze Therapeutics, Inc., priority 2021, dated 2023).

Experiments:
[1] = biological target: hGYS1 enzyme (recombinant hGYS1/GN1 protein) (Homo sapiens (Human), UniProt P13807); assay: GYS1 coupled enzyme assay (PK/LDH); format: biochemical; details: hGYS1/GN1 50 nM, UDP-Glucose 0.8 mM, G6P 1 mM; geometric mean of at least 2 runs
[2] = tested on: hGYS1 enzyme / glycogen synthesis in HeLa cells; assay: GYS1 cell based assay (glycogen synthesis, Glucose-glo); design: species or system human; details: Homo sapiens, 24 h incubation, 20 mM glucose, geometric mean of at least 2 runs
Procedure, shortened: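 HeLa cells starved 24 h in medium containing only 1× Glutamax were plated onto compound in medium with 20 mM glucose (1% DMSO final) for 24 h, 37 °C, 5% CO2. Acid lysates were Tris-quenched, glucoamylase-digested (pH 5.3, 1 h, 37 °C) and read by Glucose-glo luminescence. IC50 came from Hill fits, as geometric mean of ≥2 runs.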

Chain of hGYS1 enzyme (recombinant hGYS1/GN1 protein) (P13807 whole entry): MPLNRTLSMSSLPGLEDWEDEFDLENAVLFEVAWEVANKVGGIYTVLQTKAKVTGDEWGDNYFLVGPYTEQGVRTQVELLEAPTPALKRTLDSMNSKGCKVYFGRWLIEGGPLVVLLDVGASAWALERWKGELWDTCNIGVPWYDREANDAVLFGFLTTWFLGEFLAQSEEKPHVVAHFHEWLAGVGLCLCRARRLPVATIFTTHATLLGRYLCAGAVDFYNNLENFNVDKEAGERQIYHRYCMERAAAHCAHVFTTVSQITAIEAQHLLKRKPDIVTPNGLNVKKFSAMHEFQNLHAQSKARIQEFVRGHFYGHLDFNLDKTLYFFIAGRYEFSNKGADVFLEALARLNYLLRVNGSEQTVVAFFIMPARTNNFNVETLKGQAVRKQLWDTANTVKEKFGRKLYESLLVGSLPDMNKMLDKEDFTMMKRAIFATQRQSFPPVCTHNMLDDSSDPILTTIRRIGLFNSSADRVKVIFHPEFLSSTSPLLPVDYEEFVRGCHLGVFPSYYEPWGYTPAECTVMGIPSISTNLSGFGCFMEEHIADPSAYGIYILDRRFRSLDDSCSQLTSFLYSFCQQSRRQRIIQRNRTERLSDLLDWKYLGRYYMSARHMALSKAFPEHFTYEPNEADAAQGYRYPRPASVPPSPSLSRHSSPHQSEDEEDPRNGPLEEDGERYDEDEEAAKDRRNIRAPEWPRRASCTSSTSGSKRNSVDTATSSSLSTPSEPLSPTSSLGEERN
Chain of hGYS1 enzyme (recombinant hGYS1/GN1 protein) (P46976 whole entry partner): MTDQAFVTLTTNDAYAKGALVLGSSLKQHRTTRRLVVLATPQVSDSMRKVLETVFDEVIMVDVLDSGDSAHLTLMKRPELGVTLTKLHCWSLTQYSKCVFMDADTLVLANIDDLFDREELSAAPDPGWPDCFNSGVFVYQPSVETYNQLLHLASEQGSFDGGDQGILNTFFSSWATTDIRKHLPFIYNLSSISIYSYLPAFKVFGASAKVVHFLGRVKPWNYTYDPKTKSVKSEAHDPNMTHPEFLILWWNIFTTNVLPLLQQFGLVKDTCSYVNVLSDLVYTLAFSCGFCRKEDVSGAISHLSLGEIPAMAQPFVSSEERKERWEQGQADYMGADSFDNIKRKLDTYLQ

With `CC(C)c1ccc(C(NC(=O)[C@@H]2C[C@@H](F)CN2C(=O)Cc2cnn[nH]2)c2ncn3ccccc23)nc1F` (single isomer, unassigned) [Compound 629, (2S,4R)-4-fluoro-N-[(S) or (R)-[6-fluoro-5-(propan-2-yl)pyridin-2-yl]({imidazo[1,5-a]pyridin-1-yl})methyl]-1-[2-(1H-1,2,3-triazol-5-yl)acetyl]pyrrolidine-2-carboxamide] the IC50 [1] was 1480 nM and the IC50 ([2]; HeLa, 24 h) was > 24000 nM.

With `CCn1cc(CC(=O)N2C[C@H](F)C[C@H]2C(=O)N[C@@H](c2ccccc2)c2ccc(C(C)C)c(F)n2)cc(C)c1=O` [Compound 796, (2S,4R)-1-[2-(1-ethyl-5-methyl-6-oxo-1,6-dihydropyridin-3-yl)acetyl]-4-fluoro-N-[(S)-[6-fluoro-5-(propan-2-yl)pyridin-2-yl](phenyl)methyl] pyrrolidine-2-carboxamide] the IC50 [1] was 5 nM and the IC50 ([2]; HeLa, 24 h) was 110 nM.

`Cc1cc(C(F)F)n(CC(=O)N2C[C@H](F)C[C@H]2C(=O)N[C@@H](c2ccccc2)c2ccc(C(C)C)c(F)n2)n1` [Compound 803, (2S,4R)-1-{2-[5-(difluoromethyl)-3-methyl-1H-pyrazol-1-yl]acetyl}-4-fluoro-N-[(S)-[6-fluoro-5-(propan-2-yl)pyridin-2-yl](phenyl)methyl] pyrrolidine-2-carboxamide] showed an IC50 [1] of 4 nM and an IC50 ([2]; HeLa, 24 h) of 80 nM.

`CCOc1ncc(CC(=O)N2C[C@H](F)C[C@H]2C(=O)N[C@@H](c2ccccc2)c2ccc(C3CC(F)(F)C3)c(F)n2)cc1C` [Compound 524, (2S,4R)-N-[(S)-[5-(3,3-difluorocyclobutyl)-6-fluoropyridin-2-yl](phenyl)methyl]-1-[2-(6-ethoxy-5-methylpyridin-3-yl)acetyl]-4-fluoropyrrolidine-2-carboxamide] showed an IC50 [1] of 6 nM and an IC50 ([2]; HeLa, 24 h) of 190 nM.

For `CC(=O)N1C[C@H](F)C[C@H]1C(=O)NC(c1cccc(-c2ccnn2C)c1)c1ccc(C(C)C)c(F)n1` (single isomer, unassigned) [Compound 695, (2S,4R)-1-acetyl-4-fluoro-N-[(S) or (R)-[6-fluoro-5-(propan-2-yl)pyridin-2-yl][3-(1-methyl-1H-pyrazol-5-yl)phenyl]methyl] pyrrolidine-2-carboxamide], the IC50 [1] was 929 nM and the IC50 ([2]; HeLa, 24 h) was > 26300 nM.

`CCn1cc(CC(=O)N2C[C@H](F)C[C@H]2C(=O)N[C@@H](c2ccccc2)c2ccc(C3CC3)c(F)n2)ncc1=O` [Compound 742, (2S,4R)-N-[(S)-(5-cyclopropyl-6-fluoropyridin-2-yl)(phenyl)methyl]-1-[2-(4-ethyl-5-oxo-4,5-dihydropyrazin-2-yl)acetyl]-4-fluoropyrrolidine-2-carboxamide] gave an IC50 [1] of 24 nM and an IC50 ([2]; HeLa, 24 h) of 630 nM.

In the case of `O=C(NC(c1ccc(F)cc1)c1ccc(C2CC2)c(F)n1)[C@@H]1C[C@@H](F)CN1C(=O)Cn1nnnc1C(F)F` (single isomer, unassigned) [Compound 658, (2S,4R)-N-[(S) or (R)-(5-cyclopropyl-6-fluoropyridin-2-yl)(4-fluorophenyl)methyl]-1-{2-[5-(difluoromethyl)-1H-1,2,3,4-tetrazol-1-yl]acetyl}-4-fluoropyrrolidine-2-carboxamide], the IC50 [1] is reported as 99 nM and the IC50 ([2]; HeLa, 24 h) is reported as 1660 nM.

For `COC(=O)NCc1cccc([C@H](NC(=O)[C@@H]2C[C@@H](F)CN2C(=O)Cc2cnn[nH]2)c2ccc(C(C)C)c(F)n2)c1` [Compound 638, methyl (3-((S)-((2S,4R)-1-(2-(1H-1,2,3-triazol-5-yl)acetyl)-4-fluoropyrrolidine-2-carboxamido)(6-fluoro-5-isopropylpyridin-2-yl)methyl)benzyl)carbamate], the IC50 [1] was 399 nM and the IC50 [2] was > 23400 nM.

For `O=C(N[C@H](c1ccccc1)c1ccc(C2CC2)c(F)n1)[C@@H]1C[C@@H](F)CN1C(=O)Cc1cccn2c(=O)[nH]nc12` [Compound 718, (2S,4R)-N-[(R)-(5-cyclopropyl-6-fluoropyridin-2-yl)(phenyl)methyl]-4-fluoro-1-(2-{3-oxo-2H,3H-[1,2,4]triazolo[4,3-a]pyridin-8-yl}acetyl)pyrrolidine-2-carboxamide], the IC50 [1] was 2620 nM and the IC50 ([2]; HeLa, 24 h) was > 30000 nM.

Molecule `CCn1ccnc(CC(=O)N2C[C@H](F)C[C@H]2C(=O)N[C@@H](c2ccccc2)c2ccc(C(C)C)c(F)n2)c1=O` [Compound 806, (2S,4R)-1-[2-(4-ethyl-3-oxo-3,4-dihydropyrazin-2-yl)acetyl]-4-fluoro-N-[(S)-[6-fluoro-5-(propan-2-yl)pyridin-2-yl](phenyl)methyl] pyrrolidine-2-carboxamide] has an IC50 [1] of 6 nM and an IC50 ([2]; HeLa, 24 h) of 90 nM.

`O=C(N[C@@H](c1ccccc1)c1ccc(C2CC2)c(F)n1)[C@@H]1C[C@@H](F)CN1C(=O)Cn1nncc1C(F)F` [Compound 747, (2S,4R)-N-[(S)-(5-cyclopropyl-6-fluoropyridin-2-yl)(phenyl)methyl]-1-{2-[5-(difluoromethyl)-1H-1,2,3-triazol-1-yl]acetyl}-4-fluoropyrrolidine-2-carboxamide] gave an IC50 [1] of 16 nM and an IC50 ([2]; HeLa, 24 h) of 420 nM.

For `CCN(CC)c1cnnn1CC(=O)N1C[C@H](F)C[C@H]1C(=O)N[C@@H](c1ccccc1)c1ccc(C(C)C)c(F)n1` [Compound 805, (2S,4R)-1-{2-[5-(diethylamino)-1H-1,2,3-triazol-1-yl]acetyl}-4-fluoro-N-[(S)-[6-fluoro-5-(propan-2-yl)pyridin-2-yl](phenyl)methyl] pyrrolidine-2-carboxamide], the IC50 [1] was 12 nM and the IC50 ([2]; HeLa, 24 h) was 280 nM.

In the case of `O=C(N[C@@H](c1ccccc1)c1ccc(C2CC2)c(F)c1)[C@@H]1C[C@@H](F)CN1C(=O)CCc1n[nH]c(=O)[nH]1` [Compound 493, (2S,4R)-N-[(S)-(4-cyclopropyl-3-fluorophenyl)(phenyl)methyl]-4-fluoro-1-[3-(5-oxo-4,5-dihydro-1H-1,2,4-triazol-3-yl)propanoyl]pyrrolidine-2-carboxamide], the IC50 [1] is reported as 103 nM and the IC50 ([2]; HeLa, 24 h) is reported as 15800 nM.

`CCn1cc(C)cc(CC(=O)N2C[C@H](F)C[C@H]2C(=O)N[C@@H](c2ccccc2)c2ccc(C3CC3)c(F)n2)c1=O` [Compound 740, (2S,4R)-N-[(S)-(5-cyclopropyl-6-fluoropyridin-2-yl)(phenyl)methyl]-1-[2-(1-ethyl-5-methyl-2-oxo-1,2-dihydropyridin-3-yl)acetyl]-4-fluoropyrrolidine-2-carboxamide] showed an IC50 [1] of 9 nM and an IC50 ([2]; HeLa, 24 h) of 320 nM.

With `CCn1cc(CC(=O)N2C[C@H](F)C[C@H]2C(=O)N[C@@H](c2ccccc2)c2ccc(C3CC(F)(F)C3)c(F)n2)ncc1=O` [Compound 527, (2S,4R)-N-[(S)-[5-(3,3-difluorocyclobutyl)-6-fluoropyridin-2-yl](phenyl)methyl]-1-[2-(4-ethyl-5-oxo-4,5-dihydropyrazin-2-yl)acetyl]-4-fluoropyrrolidine-2-carboxamide] the IC50 [1] was 7 nM and the IC50 ([2]; HeLa, 24 h) was 250 nM.

Work on `CC1(c2ccc([C@@H](NC(=O)[C@@H]3C[C@@H](F)CN3C(=O)Cc3cc4ccccc4[nH]3)c3ccccc3)nc2F)CC1` [Compound 598, (2S,4R)-4-fluoro-N-[(S)-[6-fluoro-5-(1-methylcyclopropyl)pyridin-2-yl](phenyl)methyl]-1-[2-(1H-indol-2-yl)acetyl]pyrrolidine-2-carboxamide] yielded an IC50 [1] of 153 nM and an IC50 ([2]; HeLa, 24 h) of 2180 nM.
